Measurements taken from the CheMixHub viscosity set.

Experiment: xn = mol fraction of the nth substance listed

CCCCCCCCCCCC + C1CCCCC1
Conditions | viscosity [mPa·s]
297.78 K, 101.3 kPa, x1 = 0.4996 | 1.131
298.13 K, 101.3 kPa, x1 = 0.7489 | 1.247
298.15 K, 100 kPa, x2 = 0.2 | 1.263
298.15 K, 100 kPa, x2 = 0.4 | 1.171
298.15 K, 100 kPa, x2 = 0.6 | 1.071
298.15 K, 100 kPa, x2 = 0.8 | 0.979
298.15 K, 101.33 kPa, x1 = 0.0169 | 0.9114
298.15 K, 101.33 kPa, x2 = 0.1549 | 1.299
298.15 K, 101.33 kPa, x2 = 0.2886 | 1.237
298.15 K, 101.33 kPa, x2 = 0.3945 | 1.187
298.15 K, 101.33 kPa, x2 = 0.5031 | 1.138
298.15 K, 101.33 kPa, x2 = 0.5879 | 1.098
298.15 K, 101.33 kPa, x2 = 0.6636 | 1.048
298.15 K, 101.33 kPa, x2 = 0.7601 | 1.011
298.15 K, 101.33 kPa, x2 = 0.7983 | 0.9774
298.15 K, 101.33 kPa, x2 = 0.8536 | 0.9573
298.15 K, 101.33 kPa, x2 = 0.8943 | 0.9433
298.15 K, 101.33 kPa, x2 = 0.941 | 0.9223
298.31 K, 101.3 kPa, x1 = 0.5001 | 1.121
298.35 K, 101.3 kPa, x1 = 0.5001 | 1.116
298.38 K, 101.3 kPa, x1 = 0.2501 | 0.9923
298.43 K, 101.3 kPa, x1 = 0.2501 | 0.9883
298.43 K, 101.3 kPa, x1 = 0.4996 | 1.114
298.61 K, 101.3 kPa, x1 = 0.7489 | 1.232
298.62 K, 101.3 kPa, x1 = 0.7489 | 1.232
308.76 K, 101.3 kPa, x1 = 0.5001 | 0.9475
308.86 K, 101.3 kPa, x1 = 0.5001 | 0.948
323.15 K, 100 kPa, x2 = 0.2 | 0.8615
323.15 K, 100 kPa, x2 = 0.4 | 0.8075
323.15 K, 100 kPa, x2 = 0.6 | 0.7427
323.15 K, 100 kPa, x2 = 0.8 | 0.6736

CCCCCCCCCCO + C1CCCCC1
Conditions | viscosity [mPa·s]
293.15 K, 100 kPa, x2 = 0.0822 | 12.17
293.15 K, 100 kPa, x2 = 0.1602 | 10.37
293.15 K, 100 kPa, x2 = 0.2397 | 8.74
293.15 K, 100 kPa, x2 = 0.3476 | 6.8
293.15 K, 100 kPa, x2 = 0.4402 | 5.45
293.15 K, 100 kPa, x2 = 0.5604 | 3.92
293.15 K, 100 kPa, x2 = 0.6506 | 2.95
293.15 K, 100 kPa, x2 = 0.7397 | 2.18
293.15 K, 100 kPa, x2 = 0.8508 | 1.48
293.15 K, 100 kPa, x2 = 0.94 | 1.1
303.15 K, 100 kPa, x2 = 0.0822 | 8.4
303.15 K, 100 kPa, x2 = 0.1602 | 7.28
303.15 K, 100 kPa, x2 = 0.2397 | 6.22
303.15 K, 100 kPa, x2 = 0.3476 | 4.96
303.15 K, 100 kPa, x2 = 0.4402 | 4.02
303.15 K, 100 kPa, x2 = 0.5604 | 2.97
303.15 K, 100 kPa, x2 = 0.6506 | 2.31
303.15 K, 100 kPa, x2 = 0.7397 | 1.77
303.15 K, 100 kPa, x2 = 0.8508 | 1.29
303.15 K, 100 kPa, x2 = 0.94 | 0.98
303.15 K, 101.33 kPa, x1 = 0.1009 | 1.08
303.15 K, 101.33 kPa, x1 = 0.1983 | 1.404
303.15 K, 101.33 kPa, x1 = 0.2985 | 1.829
303.15 K, 101.33 kPa, x1 = 0.3954 | 2.357
303.15 K, 101.33 kPa, x1 = 0.5 | 3.076
303.15 K, 101.33 kPa, x1 = 0.5845 | 3.781
303.15 K, 101.33 kPa, x1 = 0.6939 | 4.863
303.15 K, 101.33 kPa, x1 = 0.7949 | 6.023
303.15 K, 101.33 kPa, x1 = 0.8949 | 7.33
308 K, 101 kPa, x2 = 0.0801 | 6.912
308 K, 101 kPa, x2 = 0.2421 | 5.397
308 K, 101 kPa, x2 = 0.3455 | 4.468
308 K, 101 kPa, x2 = 0.4703 | 3.396
308 K, 101 kPa, x2 = 0.5762 | 2.579
308 K, 101 kPa, x2 = 0.6347 | 2.14
308 K, 101 kPa, x2 = 0.7203 | 1.702
308 K, 101 kPa, x2 = 0.8752 | 1.061
308 K, 101 kPa, x2 = 0.9408 | 0.86
313.15 K, 100 kPa, x2 = 0.0822 | 5.95
313.15 K, 100 kPa, x2 = 0.1602 | 5.22
313.15 K, 100 kPa, x2 = 0.2397 | 4.53
313.15 K, 100 kPa, x2 = 0.3476 | 3.69
313.15 K, 100 kPa, x2 = 0.4402 | 3.04
313.15 K, 100 kPa, x2 = 0.5604 | 2.29
313.15 K, 100 kPa, x2 = 0.6506 | 1.82
313.15 K, 100 kPa, x2 = 0.7397 | 1.43
313.15 K, 100 kPa, x2 = 0.8508 | 1.05
313.15 K, 100 kPa, x2 = 0.94 | 0.81
323.15 K, 100 kPa, x2 = 0.0822 | 4.35
323.15 K, 100 kPa, x2 = 0.1602 | 3.85
323.15 K, 100 kPa, x2 = 0.2397 | 3.36
323.15 K, 100 kPa, x2 = 0.3476 | 2.78
323.15 K, 100 kPa, x2 = 0.4402 | 2.35
323.15 K, 100 kPa, x2 = 0.5604 | 1.84
323.15 K, 100 kPa, x2 = 0.6506 | 1.51
323.15 K, 100 kPa, x2 = 0.7397 | 1.22
323.15 K, 100 kPa, x2 = 0.8508 | 0.91
323.15 K, 100 kPa, x2 = 0.94 | 0.71
